The experiment deals with USP1 (construct USP1 (I-785, GG670, 671AA)/UAF1 (I-677)-Flag) (Homo sapiens (Human), UniProt O94782, G670A/G671A). In words: Ubiquitin-Rhodamine 110 assay for USP1 activity. In kind it is biochemical. The settings on record: USP1/UAF1 25 pM, Ub-Rh110 25 nM, 30 min preincubation. The method, boiled down:
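Two formats with the USP1/UAF1 complex and 25 nM ubiquitin-rhodamine 110 in pH 8.0 Tris buffer with calcium, glutathione and detergent. Single-point screening used 10 µM, 100 pM enzyme and 45 min. Inhibition was set against no-enzyme and DMSO wells.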

Molecules are shown by their SMILES. pIC50: −log10 of the molar value. Where only a bound is given, the exact number is not on record here.

By pIC50 is commonly meant the IC50 on a negative log10 scale, so that one unit is a factor of ten. Higher therefore signals a low IC50.

Chain of USP1 (construct USP1 (I-785, GG670, 671AA)/UAF1 (I-677)-Flag) (O94782 whole entry G670A/G671A): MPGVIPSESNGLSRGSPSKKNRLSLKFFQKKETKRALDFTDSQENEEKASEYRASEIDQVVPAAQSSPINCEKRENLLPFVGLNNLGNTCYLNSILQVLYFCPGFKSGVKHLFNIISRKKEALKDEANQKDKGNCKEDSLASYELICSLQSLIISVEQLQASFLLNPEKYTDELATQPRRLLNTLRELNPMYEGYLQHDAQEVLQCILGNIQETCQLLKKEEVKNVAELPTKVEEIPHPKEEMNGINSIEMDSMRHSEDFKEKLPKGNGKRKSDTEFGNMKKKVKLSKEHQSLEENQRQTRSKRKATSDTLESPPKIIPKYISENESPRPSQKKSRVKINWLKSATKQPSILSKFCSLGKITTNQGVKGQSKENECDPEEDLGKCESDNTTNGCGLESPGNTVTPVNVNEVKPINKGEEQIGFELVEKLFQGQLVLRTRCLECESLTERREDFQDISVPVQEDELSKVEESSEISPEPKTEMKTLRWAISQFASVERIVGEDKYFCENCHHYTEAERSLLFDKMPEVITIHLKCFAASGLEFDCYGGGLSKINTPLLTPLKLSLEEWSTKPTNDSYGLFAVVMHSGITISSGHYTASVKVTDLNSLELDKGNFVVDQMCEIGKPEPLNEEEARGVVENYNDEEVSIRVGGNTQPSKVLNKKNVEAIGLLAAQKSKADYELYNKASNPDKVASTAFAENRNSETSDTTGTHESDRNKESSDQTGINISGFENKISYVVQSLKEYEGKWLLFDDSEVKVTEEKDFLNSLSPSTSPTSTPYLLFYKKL
Chain of USP1 (construct USP1 (I-785, GG670, 671AA)/UAF1 (I-677)-Flag) (Q8TAF3 whole entry partner): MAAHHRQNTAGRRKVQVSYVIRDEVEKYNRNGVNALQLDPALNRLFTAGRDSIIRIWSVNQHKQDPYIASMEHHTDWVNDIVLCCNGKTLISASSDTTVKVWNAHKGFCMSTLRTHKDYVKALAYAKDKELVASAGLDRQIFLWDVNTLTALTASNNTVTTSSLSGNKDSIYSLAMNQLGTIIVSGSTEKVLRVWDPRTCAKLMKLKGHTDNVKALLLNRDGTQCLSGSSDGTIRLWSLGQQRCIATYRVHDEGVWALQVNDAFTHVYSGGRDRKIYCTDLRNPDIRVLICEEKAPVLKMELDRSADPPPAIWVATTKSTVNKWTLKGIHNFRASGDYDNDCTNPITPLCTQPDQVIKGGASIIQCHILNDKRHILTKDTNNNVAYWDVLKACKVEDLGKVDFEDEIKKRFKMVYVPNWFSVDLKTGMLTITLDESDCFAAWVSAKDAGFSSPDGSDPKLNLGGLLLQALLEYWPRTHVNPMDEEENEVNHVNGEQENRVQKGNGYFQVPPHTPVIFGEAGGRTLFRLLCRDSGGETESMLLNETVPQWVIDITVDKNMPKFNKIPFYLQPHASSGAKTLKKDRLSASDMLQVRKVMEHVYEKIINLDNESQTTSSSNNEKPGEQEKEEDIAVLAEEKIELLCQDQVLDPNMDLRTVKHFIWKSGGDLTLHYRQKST

As to `Cn1cc(C(F)(F)F)nc1-c1ccc(Cn2c(=O)[nH]c3cnc(-c4ccccc4C(F)F)nc32)cc1` [Compound I-31, 2-(2-(difluoromethyl)phenyl)-9-(4-(1-methyl-4-(trifluoromethyl)-1H-imidazol-2-yl)benzyl)-7,9-dihydro-8H-purin-8-one], the pIC50 is above 7.30. Regarding `CCOC(=O)c1cc(C)nn1-c1ccc(Cn2c(=O)[nH]c3cnc(-c4ccccc4C4CC4)nc32)cc1` [Compound I-99, ethyl 1-(4-((2-(2-cyclopropylphenyl)-8-oxo-7,8-dihydro-9H-purin-9-yl)methyl)phenyl)-3-methyl-1H-pyrazole-5-carboxylate], the pIC50 is above 7.30. In the case of `Cc1nc(-c2ccc(Cn3c(=O)[nH]c4cnc(-c5ccccc5C(C)C)nc43)cc2)no1` [Compound I-152, 2-(2-isopropylphenyl)-9-(4-(5-methyl-1,2,4-oxadiazol-3-yl)benzyl)-7,9-dihydro-8H-purin-8-one] it was above 7.30; in that of `Cc1cc(C(=O)N(C)C)nn1-c1ccc(Cn2c(=O)[nH]c3cnc(-c4ccccc4C(C)C)nc32)cc1` [Compound I-503, 1-(4-((2-(2-Isopropylphenyl)-8-oxo-7,8-dihydro-9H-purin-9-yl)methyl)phenyl)-N,N,5-trimethyl-1H-pyrazole-3-carboxamide], above 7.30; in that of `CC(C)c1ccccc1-c1ncc2[nH]c(=O)n(CC3(F)CCN(C(=O)OC(C)(C)C)CC3)c2n1` [Compound I-220, tert-butyl 4-fluoro-4-((2-(2-isopropylphenyl)-8-oxo-7,8-dihydro-9H-purin-9-yl)methyl)piperidine-1-carboxylate], 6.70 to 7.30. In turn, `CC(C)c1ccccc1-c1ncc2[nH]c(=O)n(Cc3ccc(-c4ncco4)cc3)c2n1` [Compound I-169, 2-(2-isopropylphenyl)-9-(4-(oxazol-2-yl)benzyl)-7,9-dihydro-8H-purin-8-one] had a pIC50 above 7.30.

For `CC(C)(O)c1ccccc1-c1ncc2[nH]c(=O)n(Cc3ccc(-n4cccn4)cc3)c2n1` [Compound I-528, 9-(4-(1H-Pyrazol-1-yl)benzyl)-2-(2-(2-hydroxypropan-2-yl)phenyl)-7,9-dihydro-8H-purin-8-one], the negative-log IC50 (pIC50) was 5.70 to 6.70. For the molecule `CC(C)c1ccccc1-c1ncc2c(n1)n(Cc1ccc(N(C)S(C)(=O)=O)cc1)c(=O)n2C` [Compound I-459, N-(4-((2-(2-isopropylphenyl)-7-methyl-8-oxo-7,8-dihydro-9H-purin-9-yl)methyl)phenyl)-N-methylmethanesulfonamide], the pIC50 was 5.70 to 6.70. `CN(C)c1ncccc1-c1ncc2[nH]c(=O)n(Cc3ccc(-c4nc(C(F)(F)F)cn4C)cc3)c2n1` [Compound I-323, 2-(2-(dimethylamino)pyridin-3-yl)-9-(4-(1-methyl-4-(trifluoromethyl)-1H-imidazol-2-yl)benzyl)-7,9-dihydro-8H-purin-8-one] had a pIC50 above 7.30. On to `Cn1cc(C(F)(F)F)nc1-c1ccc(Cn2c(=O)n(C3CC3)c3cnc(-c4cccnc4C4CC4)nc32)cc1` [Compound I-101, 7-cyclopropyl-2-(2-cyclopropylpyridin-3-yl)-9-(4-(1-methyl-4-(trifluoromethyl)-1H-imidazol-2-yl)benzyl)-7,9-dihydro-8H-purin-8-one], for which the pIC50 is above 7.30. The value for `CC(C)c1ccccc1-c1ncc2[nH]c(=O)n(Cc3ccc(-c4cnn(C5CCOCC5)c4)cc3)c2n1` [Compound I-519, 2-(2-Isopropylphenyl)-9-(4-(1-(tetrahydro-2H-pyran-4-yl)-1H-pyrazol-4-yl)benzyl)-7,9-dihydro-8H-purin-8-one] was 5.70 to 6.70; that for `CC(C)c1ccccc1-c1ncc2c(n1)n(Cc1ccc(-c3ccc(CCN(C)C)cc3)cc1)c(=O)n2C` [Compound I-262, 9-((4′-(2-(dimethylamino)ethyl)-[1,1′-biphenyl]-4-yl)methyl)-2-(2-isopropylphenyl)-7-methyl-7,9-dihydro-8H-purin-8-one] was 6.70 to 7.30. The molecule `Cc1cnc(-c2ccc(Cn3c(=O)[nH]c4cnc(-c5ccccc5C(C)C)nc43)cc2)n1C(C)C` [Compound I-536, 9-(4-(1-Isopropyl-5-methyl-1H-imidazol-2-yl)benzyl)-2-(2-isopropylphenyl)-7,9-dihydro-8H-purin-8-one] gave a negative logarithm of the IC50 (pIC50) above 7.30. In the case of `CC(C)c1ccccc1-c1ncc2[nH]c(=O)n(Cc3ccc(-n4ccc(C5CCN(C)C5)n4)cc3)c2n1` (centres unmarked) [Compound I-440, 2-(2-isopropylphenyl)-9-(4-(3-(1-methylpyrrolidin-3-yl)-1H-pyrazol-1-yl)benzyl)-7,9-dihydro-8H-purin-8-one] it was 5.70 to 6.70; in that of `CC(C)c1ccccc1-c1ncc2[nH]c(=O)n(CC3(F)CCN(c4cccnc4)CC3)c2n1` [Compound I-505, 9-((4-Fluoro-1-(pyridin-3-yl)piperidin-4-yl)methyl)-2-(2-isopropylphenyl)-7,9-dihydro-8H-purin-8-one], 5.70 to 6.70; in that of `CC(C)c1ccccc1-c1ncc2[nH]c(=O)n(Cc3ccc(C(=O)N4CCCC4C)cc3)c2n1` (centres unmarked) [Compound I-390, 2-(2-isopropylphenyl)-9-(4-(2-methylpyrrolidine-1-carbonyl)benzyl)-7,9-dihydro-8H-purin-8-one], above 7.30. The value for `CC(C)c1ccccc1-c1ncc2[nH]c(=O)n(Cc3ccc(C(=O)N4C[C@@H](C)O[C@@H](C)C4)cc3)c2n1` [Compound I-385, 9-(4-((2R,6S)-2,6-dimethylmorpholine-4-carbonyl)benzyl)-2-(2-isopropylphenyl)-7,9-dihydro-8H-purin-8-one] was 6.70 to 7.30; that for `Cn1cc(C(F)(F)F)nc1-c1ccc(Cn2c(=O)n(C)c3cnc(-c4cccnc4N4CC(F)C4)nc32)cc1` [Compound I-134, 2-(2-(3-fluoroazetidin-1-yl)pyridin-3-yl)-7-methyl-9-(4-(1-methyl-4-(trifluoromethyl)-1H-imidazol-2-yl)benzyl)-7,9-dihydro-8H-purin-8-one] was 6.70 to 7.30. In turn, `Cn1cc(C(F)(F)F)nc1-c1ccc(Cn2c(=O)n(C)c3cnc(-c4ccccc4OC(F)(F)F)nc32)cc1` [Compound I-49, 7-methyl-9-(4-(1-methyl-4-(trifluoromethyl)-1H-imidazol-2-yl)benzyl)-2-(2-(trifluoromethoxy)phenyl)-7,9-dihydro-8H-purin-8-one] gave a pIC50 above 7.30. In the case of `CC(C)c1ccccc1-c1ncc2[nH]c(=O)n(Cc3ccc(C(=O)N4CCN(C)CC4)cc3)c2n1` [Compound I-410, 2-(2-isopropylphenyl)-9-(4-(4-methylpiperazine-1-carbonyl)benzyl)-7,9-dihydro-8H-purin-8-one] it was below 5.70; in that of `CC(C)c1c(F)cccc1-c1ncc2[nH]c(=O)n(Cc3ccc(-n4ccnn4)cc3)c2n1` [Compound I-165, 9-(4-(1H-1,2,3-triazol-1-yl)benzyl)-2-(3-fluoro-2-isopropylphenyl)-7,9-dihydro-8H-purin-8-one], 6.70 to 7.30. In turn, `Cc1cc(Cl)n(-c2ccc(Cn3c(=O)[nH]c4cnc(-c5ccccc5C(C)C)nc43)cc2)n1` [Compound I-211, 9-(4-(5-chloro-3-methyl-1H-pyrazol-1-yl)benzyl)-2-(2-isopropylphenyl)-7,9-dihydro-8H-purin-8-one] had a pIC50 above 7.30. The value for `COCCNc1ccc(Cn2c(=O)n(C)c3cnc(-c4ccccc4C(C)C)nc32)cc1` [Compound I-489, 2-(2-isopropylphenyl)-9-(4-((2-methoxyethyl)amino)benzyl)-7-methyl-7,9-dihydro-8H-purin-8-one] was 6.70 to 7.30.

Values taken from US10189841B2, “Purinones as ubiquitin-specific protease 1 inhibitors” (Forma Therapeutics, Inc., priority 2015, dated 2019).
